Columns and labels:
[1] = biological target: T1, hERG potassium channel (Homo sapiens, UniProt Q12809); assay: in vitro
[2] = biological target: T1, hERG potassium channel
[3] = system: THP1-defNLRP3 cells; assay: Agonistic effect on the expression of IL-1β in NLRP3 deficient THP1 cells (THP1-defNLRP3) after PMA-induced differentiation (HTRF); format: cell-based, human; conditions: Homo sapiens, THP-1; IL-1β level, PMA-differentiated NLRP3 deficient THP1 cells, 6 hours; highest test concentration 30 μM; read-out: hNLRP3 EC50 (μM) (THP-1defNLRP3)
In short: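 PMA-differentiated (1 μM, 24 h) NLRP3-deficient THP1 macrophages, 1×10^5 cells/well in RPMI 1640 with 2% heat-inactivated FBS, treated with compound for 6 h at 37 °C. Supernatant IL-1β measured by HTRF. EC50 from four-parameter variable-slope fit.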

[4] = biological target: T2, hTLR7 (Homo sapiens, UniProt Q9NYK1); assay: Agonistic effect on hTLR7, HEK-hTLR7-NF-κB-Luciferase reporter cells; format: cell-based; conditions: 16 hours
T2 construct: host or cells: HEK-hTLR7-NF-κB-Luciferase cells
T2 sequence (Q9NYK1 27-1049): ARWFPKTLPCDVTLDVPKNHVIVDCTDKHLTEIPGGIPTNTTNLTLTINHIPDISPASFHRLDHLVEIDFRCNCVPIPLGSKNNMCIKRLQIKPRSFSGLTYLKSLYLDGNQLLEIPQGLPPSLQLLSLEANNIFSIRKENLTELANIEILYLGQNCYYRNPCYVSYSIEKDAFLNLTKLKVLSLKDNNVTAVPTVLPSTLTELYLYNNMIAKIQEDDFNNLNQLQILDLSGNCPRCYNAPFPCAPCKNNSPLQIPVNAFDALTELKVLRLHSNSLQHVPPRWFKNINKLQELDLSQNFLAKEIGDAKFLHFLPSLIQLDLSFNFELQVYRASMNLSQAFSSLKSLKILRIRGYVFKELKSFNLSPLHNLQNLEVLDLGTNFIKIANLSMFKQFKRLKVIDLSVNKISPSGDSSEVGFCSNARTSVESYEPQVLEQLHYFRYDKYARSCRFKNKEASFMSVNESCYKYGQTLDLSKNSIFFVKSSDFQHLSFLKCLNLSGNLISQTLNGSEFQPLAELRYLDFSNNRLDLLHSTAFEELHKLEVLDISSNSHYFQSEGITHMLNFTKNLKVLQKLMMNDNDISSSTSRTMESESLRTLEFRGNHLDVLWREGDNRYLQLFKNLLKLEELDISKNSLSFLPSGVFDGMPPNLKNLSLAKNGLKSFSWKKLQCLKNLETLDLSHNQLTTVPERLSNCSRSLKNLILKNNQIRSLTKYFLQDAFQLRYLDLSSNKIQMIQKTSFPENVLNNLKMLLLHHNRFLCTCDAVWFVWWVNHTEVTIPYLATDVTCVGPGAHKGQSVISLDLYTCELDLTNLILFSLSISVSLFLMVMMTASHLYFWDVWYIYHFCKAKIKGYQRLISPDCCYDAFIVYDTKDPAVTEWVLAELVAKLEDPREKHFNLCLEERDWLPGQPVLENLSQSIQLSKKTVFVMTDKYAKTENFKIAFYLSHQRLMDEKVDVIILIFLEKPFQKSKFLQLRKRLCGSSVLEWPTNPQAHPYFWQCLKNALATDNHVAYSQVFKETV
In short: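 HEK cells carrying human TLR7 and NF-κB-luciferase reporter, […] in DMEM with 10% FBS, exposed to compound for 16 h at 37 °C, 5% CO2; serves as specificity counterscreen to NLRP3 activity. Luminescence (RLU) after 5 min with luciferase reagent; EC50 by four-parameter variable-slope fit.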

T1 sequence (Q12809 whole entry): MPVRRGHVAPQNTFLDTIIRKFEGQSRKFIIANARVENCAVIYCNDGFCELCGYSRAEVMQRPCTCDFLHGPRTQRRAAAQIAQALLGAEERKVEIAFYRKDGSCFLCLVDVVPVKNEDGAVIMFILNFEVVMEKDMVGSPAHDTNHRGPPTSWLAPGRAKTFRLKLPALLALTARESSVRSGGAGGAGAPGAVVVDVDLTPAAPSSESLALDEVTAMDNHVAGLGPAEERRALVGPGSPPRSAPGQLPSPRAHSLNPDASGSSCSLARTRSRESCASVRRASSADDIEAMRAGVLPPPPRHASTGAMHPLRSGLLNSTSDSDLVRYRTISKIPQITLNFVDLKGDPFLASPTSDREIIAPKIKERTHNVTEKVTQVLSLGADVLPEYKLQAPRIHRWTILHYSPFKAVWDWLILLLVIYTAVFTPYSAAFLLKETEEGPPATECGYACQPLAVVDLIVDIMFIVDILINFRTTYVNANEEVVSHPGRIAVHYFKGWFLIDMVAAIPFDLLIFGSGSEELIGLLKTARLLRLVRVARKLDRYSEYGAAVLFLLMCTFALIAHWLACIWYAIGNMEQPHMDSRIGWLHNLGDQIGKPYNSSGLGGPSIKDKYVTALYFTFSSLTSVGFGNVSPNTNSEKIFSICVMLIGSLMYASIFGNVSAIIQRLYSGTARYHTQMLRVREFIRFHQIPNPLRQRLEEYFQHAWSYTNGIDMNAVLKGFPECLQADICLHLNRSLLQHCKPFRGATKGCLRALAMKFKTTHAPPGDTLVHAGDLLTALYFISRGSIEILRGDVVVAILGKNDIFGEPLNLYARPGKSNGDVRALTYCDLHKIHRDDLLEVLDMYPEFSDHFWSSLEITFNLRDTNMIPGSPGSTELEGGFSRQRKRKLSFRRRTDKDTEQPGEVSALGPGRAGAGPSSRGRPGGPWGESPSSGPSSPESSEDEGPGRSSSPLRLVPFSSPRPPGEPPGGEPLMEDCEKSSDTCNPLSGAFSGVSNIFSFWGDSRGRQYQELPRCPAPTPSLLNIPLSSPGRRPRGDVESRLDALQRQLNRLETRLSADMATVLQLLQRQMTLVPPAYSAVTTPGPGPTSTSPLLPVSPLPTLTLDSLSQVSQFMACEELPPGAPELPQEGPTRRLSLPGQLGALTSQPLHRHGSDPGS

| EC50 [3] [µM] | EC50 [4] [µM] | Compound | inhibition at 10 μM [1] [%] | inhibitory effect on hERG [2] |
| --- | --- | --- | --- | --- |
| > 30 | > 100 | Nc1cc(NCC(F)F)c2sc(-c3ccn[nH]3)cc2n1 [Compound 116, N^7-(2,2-difluoroethyl)-2-(1H-pyrazol-5-yl)thieno[3,2-b]pyridine-5,7-diamine] | 18.5 ± 4.98 | no apparent inhibitory effect |
| > 30 | > 100 | COCCNc1cc(N)nc2cc(-c3ccn[nH]3)sc12 [Compound 100, N^7-(2-methoxyethyl)-2-(1H-pyrazol-5-yl)thieno[3,2-b]pyridine-5,7-diamine] | 5.42 ± 2.2 | no apparent inhibitory effect |
| > 30 | > 100 | Nc1cc(NCC2CCOCC2)c2sc(-c3ccn[nH]3)cc2n1 [Compound 120, 2-(1H-pyrazol-5-yl)-N^7-((tetrahydro-2H-pyran-4-yl)methyl)thieno[3,2-b]pyridine-5,7-diamine] | 11.7 ± 0.7 | no apparent inhibitory effect |
| > 30 | > 100 | CC(C)(CO)CNc1cc(N)nc2cc(-c3ccn[nH]3)sc12 [Compound 115, 3-((5-amino-2-(1H-pyrazol-5-yl)thieno[3,2-b]pyridin-7-yl)amino)-2,2-dimethyl-1-propanol] | 8.26 ± 3.66 | no apparent inhibitory effect |
| > 30 | > 100 | Nc1cc(N2CCN(C=O)CC2)c2sc(-c3ccn[nH]3)cc2n1 [Compound 178] |  |  |
| > 30 | > 100 | Nc1cc(NC2COC2)c2sc(-c3ccn[nH]3)cc2n1 [Compound 112, N^7-(oxetan-3-yl)-2-(1H-pyrazol-5-yl)thieno[3,2-b]pyridine-5,7-diamine] |  |  |
| > 30 | > 100 | CC(=O)N(C)CCNc1cc(N)nc2cc(-c3ccn[nH]3)sc12 [Compound 73, N-(2-((5-amino-2-(1H-pyrazol-5-yl)thieno[3,2-b]pyridin-7-yl)amino)ethyl)-N-methylethanamide] |  |  |
| > 30 | > 100 | CCC(=O)N(C)CCNc1cc(N)nc2cc(-c3ccn[nH]3)sc12 [Compound 88, N-(2-((5-amino-2-(1H-pyrazol-5-yl)thieno[3,2-b]pyridin-7-yl)amino)ethyl)-N-methylpropionamide] |  |  |
| > 30 | > 100 | Nc1cc(N2CCOCC2)c2sc(-c3ccn[nH]3)cc2n1 [Compound 170] |  |  |
| > 30 | > 100 | Nc1cc(N2CCN(C3CCCCC3)CC2)c2sc(-c3ccn[nH]3)cc2n1 [Compound 167] |  |  |
| > 30 | > 100 | CC(=O)N1CCC(Nc2cc(N)nc3cc(-c4ccn[nH]4)sc23)CC1 [Compound 92, 1-(4-((5-amino-2-(1H-pyrazol-5-yl)thieno[3,2-b]pyridin-7-yl)amino)piperidin-1-yl)ethanone] |  |  |

Reference: patent US20220056043A1, “NITROGEN-CONTAINING FUSED CYCLIC COMPOUND, PREPARATION METHOD THEREFOR AND USE THEREOF” (SICHUAN KELUN-BIOTECH BIOPHARMACEUTICAL CO., LTD., priority 2019, published 2022)
